From PubChem BioAssay (NCI)
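The concentration for 50% growth inhibition is given as GI50. Definition used: TGI = concentration required for complete inhibition of growth.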

Experiments:
Test in all cases: NCI anticancer screen, dose series, 384-well format
NCI-H322M lung = test system: NCI-H322M lung
OVCAR-5 ovarian = test system: OVCAR-5 ovarian
MCF7 breast = test system: MCF7 breast
HT29 colon = test system: HT29 colon
SK-OV-3 ovarian = test system: SK-OV-3 ovarian
NCI-H23 lung = test system: NCI-H23 lung
PC-3 prostate = test system: PC-3 prostate
HOP-62 NSCLC = test system: HOP-62 NSCLC
SW-620 colon = test system: SW-620 colon
DU-145 prostate = test system: DU-145 prostate
OVCAR-4 ovarian = test system: OVCAR-4 ovarian
U251 glioblastoma = test system: U251 glioblastoma
SF-295 CNS = test system: SF-295 CNS
IGROV1 ovarian = test system: IGROV1 ovarian
TK-10 renal = test system: TK-10 renal
HCC-2998 colon = test system: HCC-2998 colon
MDA-MB-231 breast = test system: MDA-MB-231 breast
SF-539 CNS = test system: SF-539 CNS
NCI-H226 lung = test system: NCI-H226 lung
NCI/ADR-RES ovarian = test system: NCI/ADR-RES ovarian
T-47D breast = test system: T-47D breast
HCT-15 colon = test system: HCT-15 colon
MDA-MB-468 breast = test system: MDA-MB-468 breast
786-0 renal = test system: 786-0 renal
SR leukemia = test system: SR leukemia
HCT-116 colon = test system: HCT-116 colon
OVCAR-3 ovarian = test system: OVCAR-3 ovarian
UO-31 renal = test system: UO-31 renal
CCRF-CEM leukemia = test system: CCRF-CEM leukemia
SN12C renal = test system: SN12C renal
RXF 393 renal = test system: RXF 393 renal
RPMI-8226 leukemia = test system: RPMI-8226 leukemia
NCI-H522 lung = test system: NCI-H522 lung
SK-MEL-28 melanoma = test system: SK-MEL-28 melanoma
COLO 205 colon = test system: COLO 205 colon
CAKI-1 renal = test system: CAKI-1 renal
OVCAR-8 ovarian = test system: OVCAR-8 ovarian
A498 renal = test system: A498 renal
NCI-H460 NSCLC = test system: NCI-H460 NSCLC
A549 NSCLC = test system: A549 NSCLC
LOX IMVI melanoma = test system: LOX IMVI melanoma
MOLT-4 leukemia = test system: MOLT-4 leukemia
HL-60(TB) leukemia = test system: HL-60(TB) leukemia
SK-MEL-2 melanoma = test system: SK-MEL-2 melanoma
SNB-19 CNS = test system: SNB-19 CNS
M14 melanoma = test system: M14 melanoma
UACC-257 melanoma = test system: UACC-257 melanoma
HOP-92 NSCLC = test system: HOP-92 NSCLC
ACHN renal = test system: ACHN renal
MALME-3M melanoma = test system: MALME-3M melanoma
MDA-MB-435 melanoma = test system: MDA-MB-435 melanoma
SF-268 CNS = test system: SF-268 CNS
KM12 colon = test system: KM12 colon
K-562 leukemia = test system: K-562 leukemia
BT-549 breast = test system: BT-549 breast
SK-MEL-5 melanoma = test system: SK-MEL-5 melanoma
UACC-62 melanoma = test system: UACC-62 melanoma

CN(CC(=O)N(Cc1ccc(C2CCCCC2)cc1)c1ccc(C(=O)O)c(O)c1)S(=O)(=O)c1c(F)c(F)c(F)c(F)c1F
GI50 (NCI-H322M lung): 4.14 µM | TGI (NCI-H322M lung): 12.6 µM | GI50 (OVCAR-5 ovarian): 19.1 µM | TGI (OVCAR-5 ovarian): 33.2 µM | GI50 (MCF7 breast): 1.88 µM | TGI (MCF7 breast): 3.54 µM | GI50 (HT29 colon): 2.29 µM | TGI (HT29 colon): 4.83 µM | GI50 (SK-OV-3 ovarian): 4.48 µM | TGI (SK-OV-3 ovarian): 15.5 µM | GI50 (NCI-H23 lung): 6.96 µM | TGI (NCI-H23 lung): 18.3 µM | GI50 (PC-3 prostate): 2.17 µM | TGI (PC-3 prostate): 3.96 µM | GI50 (HOP-62 NSCLC): 5.27 µM | TGI (HOP-62 NSCLC): 16.2 µM | GI50 (SW-620 colon): 1.93 µM | TGI (SW-620 colon): 3.37 µM | GI50 (DU-145 prostate): 18.6 µM | TGI (DU-145 prostate): 32.6 µM | GI50 (OVCAR-4 ovarian): 10.7 µM | TGI (OVCAR-4 ovarian): 22.6 µM | GI50 (U251 glioblastoma): 1.85 µM | TGI (U251 glioblastoma): 3.28 µM | GI50 (SF-295 CNS): 16.2 µM | TGI (SF-295 CNS): 29.8 µM | GI50 (IGROV1 ovarian): 1.79 µM | TGI (IGROV1 ovarian): 3.34 µM | GI50 (TK-10 renal): 14.5 µM | TGI (TK-10 renal): 27.6 µM | GI50 (HCC-2998 colon): 1.71 µM | TGI (HCC-2998 colon): 3.1 µM | GI50 (MDA-MB-231 breast): 1.98 µM | TGI (MDA-MB-231 breast): 3.47 µM | GI50 (SF-539 CNS): 2.01 µM | TGI (SF-539 CNS): 3.76 µM | GI50 (NCI-H226 lung): 2.6 µM | TGI (NCI-H226 lung): 5.69 µM | GI50 (NCI/ADR-RES ovarian): 15.3 µM | TGI (NCI/ADR-RES ovarian): 28.6 µM | GI50 (T-47D breast): 6.09 µM | TGI (T-47D breast): 18.6 µM | GI50 (HCT-15 colon): 1.93 µM | TGI (HCT-15 colon): 3.36 µM | GI50 (MDA-MB-468 breast): 2.18 µM | TGI (MDA-MB-468 breast): 3.7 µM | GI50 ([…]-0 renal): 2.61 µM | TGI (786-0 renal): 7.22 µM | GI50 (SR leukemia): 1.79 µM | TGI (SR leukemia): 3.2 µM | GI50 (HCT-116 colon): 1.83 µM | TGI (HCT-116 colon): 3.29 µM | GI50 (OVCAR-3 ovarian): 2.19 µM | TGI (OVCAR-3 ovarian): 4.24 µM | GI50 (UO-31 renal): 12.5 µM | TGI (UO-31 renal): 25 µM | GI50 (CCRF-CEM leukemia): 1.81 µM | TGI (CCRF-CEM leukemia): 3.21 µM | GI50 (SN12C renal): 2.09 µM | TGI (SN12C renal): 3.78 µM | GI50 (RXF 393 renal): 1.83 µM | TGI (RXF 393 renal): 3.41 µM | GI50 (RPMI-8226 leukemia): 1.79 µM | TGI (RPMI-8226 leukemia): 3.18 µM | GI50 (NCI-H522 lung): 1.88 µM | TGI (NCI-H522 lung): 3.29 µM | GI50 (SK-MEL-28 melanoma): 2.58 µM | TGI (SK-MEL-28 melanoma): 5.55 µM | GI50 (COLO 205 colon): 2.86 µM | TGI (COLO 205 colon): 6.54 µM | GI50 (CAKI-1 renal): 2.44 µM | TGI (CAKI-1 renal): 5.2 µM | GI50 (OVCAR-8 ovarian): 1.92 µM | TGI (OVCAR-8 ovarian): 3.47 µM | GI50 (A498 renal): 15.1 µM | TGI (A498 renal): 28.4 µM | GI50 (NCI-H460 NSCLC): 4.96 µM | TGI (NCI-H460 NSCLC): 16.9 µM | GI50 (A549 NSCLC): 16.8 µM | TGI (A549 NSCLC): 30.6 µM | GI50 (LOX IMVI melanoma): 1.93 µM | TGI (LOX IMVI melanoma): 3.36 µM | GI50 (MOLT-4 leukemia): 1.89 µM | TGI (MOLT-4 leukemia): 3.32 µM | GI50 (HL-60(TB) leukemia): 1.75 µM | TGI (HL-60(TB) leukemia): 3.14 µM | GI50 (SK-MEL-2 melanoma): 2.02 µM | TGI (SK-MEL-2 melanoma): 3.62 µM | GI50 (SNB-19 CNS): 1.99 µM | TGI (SNB-19 CNS): 3.6 µM | GI50 (M14 melanoma): 2 µM | TGI (M14 melanoma): 3.55 µM | GI50 (UACC-257 melanoma): 1.75 µM | TGI (UACC-257 melanoma): 3.18 µM | GI50 (HOP-92 NSCLC): 2.65 µM | TGI (HOP-92 NSCLC): 5.88 µM | GI50 (ACHN renal): 12.4 µM | TGI (ACHN renal): 24.9 µM | GI50 (MALME-3M melanoma): 2.52 µM | TGI (MALME-3M melanoma): 4.96 µM | GI50 (MDA-MB-435 melanoma): 2.29 µM | TGI (MDA-MB-435 melanoma): 4.28 µM | GI50 (SF-268 CNS): 1.94 µM | TGI (SF-268 CNS): 3.46 µM | GI50 (KM12 colon): 4.16 µM | TGI (KM12 colon): 13.4 µM | GI50 (K-562 leukemia): 2.1 µM | TGI (K-562 leukemia): 3.56 µM | GI50 (BT-549 breast): 2.1 µM | TGI (BT-549 breast): 3.7 µM | GI50 (SK-MEL-5 melanoma): 4.6 µM | TGI (SK-MEL-5 melanoma): 14.5 µM | GI50 (UACC-62 melanoma): 1.92 µM | TGI (UACC-62 melanoma): 3.36 µM
